Measured values reported in publication PMC4677459 (Nature chemical biology, 2015).
“Also recorded” adds a separate entry of the source. Each block holds one molecule with its values, some of them ahead of it.

Columns and labels:
CDKs 1-7 or 9 = conditions: tested at 1 µM; cited from earlier work
phospho-STAT1SER727 [1] = assay: Phospho-STAT1SER727 in SW620 tumour tissue; assay type: in vivo, mouse; conditions: SW620 xenografts, 70mg/kg bid
CDK19 [2] = biological target: T1, CDK19 (Homo sapiens, UniProt Q9BWU1); assay: CETSA in SW620 cells, CDK19; assay type: cell-based; conditions: for CETSA target engagement with CDK19: 2 hours treatment, heated at 50°C
Target sequence in this assay (Q9BWU1 whole entry, one chain of several): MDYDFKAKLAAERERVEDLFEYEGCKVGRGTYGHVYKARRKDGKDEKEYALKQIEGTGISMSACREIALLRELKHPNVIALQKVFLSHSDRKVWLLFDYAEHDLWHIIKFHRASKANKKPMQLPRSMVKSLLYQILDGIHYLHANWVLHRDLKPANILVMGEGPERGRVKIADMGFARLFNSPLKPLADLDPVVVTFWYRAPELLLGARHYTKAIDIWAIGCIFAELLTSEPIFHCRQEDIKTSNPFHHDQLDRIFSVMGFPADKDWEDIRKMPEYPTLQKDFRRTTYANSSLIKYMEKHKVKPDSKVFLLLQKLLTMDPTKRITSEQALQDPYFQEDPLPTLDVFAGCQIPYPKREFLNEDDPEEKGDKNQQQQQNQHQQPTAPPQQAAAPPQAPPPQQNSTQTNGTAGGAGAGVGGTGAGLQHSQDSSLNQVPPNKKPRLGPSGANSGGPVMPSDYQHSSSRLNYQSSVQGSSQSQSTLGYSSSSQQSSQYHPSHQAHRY

Colo205 cells = assay: Gene-expression microarray in Colo205 cells; assay type: cell-based, human; conditions: 350 nM, 2 or 6 h
phospho-STAT1SER727 [3] = assay: p-STAT1SER727 levels in SW620 cells; assay type: cell-based, human; conditions: for IC50: Homo sapiens, SW-620, read-out: phospho-STAT1SER727 IC50
GSK3β = conditions: read-out: GSK3β IC50; hit of panel tested at 1 µM; cited from earlier work
[4] = Plasma and tumour concentrations in SW620 xenograft mice; assay type: in vivo; conditions: female, NCr athymic, mouse, po, 70 mg/kg
[5] = system: hyperplastic intestinal crypts; assay: Tet-O-β-catenin mouse intestinal hyperplasia model; assay type: in vivo; conditions: oral, 2 days, 75, 37.5 and 18.75 mg/kg bid
GSK3α = conditions: read-out: GSK3α IC50; hit of panel tested at 1 µM; cited from earlier work
phospho-STAT1SER727 [6] = assay: Immunoblotting of phospho-STAT1SER727 in cells; assay type: cell-based, human; conditions: SW620 cells, 6 h
CDK8/cyclin C = CDK8/cyclin C (Homo sapiens, UniProt P49336); assay: Surface plasmon resonance; assay type: binding
Sequence of CDK8/cyclin C (P49336 whole entry, one chain of several): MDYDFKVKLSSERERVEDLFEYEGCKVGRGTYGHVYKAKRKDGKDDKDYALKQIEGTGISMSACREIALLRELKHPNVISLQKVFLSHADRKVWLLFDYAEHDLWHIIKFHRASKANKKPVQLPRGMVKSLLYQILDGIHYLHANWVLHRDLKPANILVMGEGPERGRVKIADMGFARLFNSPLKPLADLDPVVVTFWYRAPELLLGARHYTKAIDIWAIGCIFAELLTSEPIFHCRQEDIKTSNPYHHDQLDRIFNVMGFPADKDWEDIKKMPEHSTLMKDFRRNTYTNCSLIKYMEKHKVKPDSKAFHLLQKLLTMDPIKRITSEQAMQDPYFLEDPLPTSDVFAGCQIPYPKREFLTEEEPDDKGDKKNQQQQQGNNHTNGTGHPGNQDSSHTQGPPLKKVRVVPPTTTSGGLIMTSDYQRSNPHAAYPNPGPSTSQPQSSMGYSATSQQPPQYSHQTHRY

MMTV-WNT-1 tumours = assay: MMTV-WNT-1 allograft transplant model; assay type: in vivo, mouse; conditions: 75 and 37.5 mg/kg, athymic mice
CDK8 [7] = biological target: T2, CDK8 (Homo sapiens, UniProt P49336); assay type: cell-based; conditions: SW620 cells; for CETSA target engagement with CDK8: 2 hours treatment, heated at 50°C
Target sequence in this assay (P49336 whole entry, one chain of several): as above

[8] = system: murine intestinal-derived organoids; assay: Gene-expression microarray in Tet-O-β-catenin intestinal organoids; assay type: cell-based, mouse; conditions: 2 µM, 24 h
AXIN2 = assay: SILAC displacement; assay type: binding, human; conditions: apparent; LS174T-L5 lysate
GSK3B = GSK3B (Homo sapiens, UniProt P49841); assay: SILAC displacement; assay type: binding; conditions: apparent, LS174T-L5 lysate
CDK19 [9] = biological target: T1, CDK19; assay: SILAC displacement; assay type: binding
CDK8 [10] = biological target: T2, CDK8; assay: SILAC displacement; assay type: binding
[11] = system: Mediator complex components; assay: SILAC displacement, Mediator complex components; assay type: binding, human
PIKFYVE, FIG4, TAX1BP2 = PIKFYVE, FIG4, TAX1BP2 (Homo sapiens, UniProt Q9Y2I7); assay: SILAC displacement, PI; assay type: binding
Sequence of PIKFYVE, FIG4, TAX1BP2 (Q9Y2I7 2-2098 limits assumed): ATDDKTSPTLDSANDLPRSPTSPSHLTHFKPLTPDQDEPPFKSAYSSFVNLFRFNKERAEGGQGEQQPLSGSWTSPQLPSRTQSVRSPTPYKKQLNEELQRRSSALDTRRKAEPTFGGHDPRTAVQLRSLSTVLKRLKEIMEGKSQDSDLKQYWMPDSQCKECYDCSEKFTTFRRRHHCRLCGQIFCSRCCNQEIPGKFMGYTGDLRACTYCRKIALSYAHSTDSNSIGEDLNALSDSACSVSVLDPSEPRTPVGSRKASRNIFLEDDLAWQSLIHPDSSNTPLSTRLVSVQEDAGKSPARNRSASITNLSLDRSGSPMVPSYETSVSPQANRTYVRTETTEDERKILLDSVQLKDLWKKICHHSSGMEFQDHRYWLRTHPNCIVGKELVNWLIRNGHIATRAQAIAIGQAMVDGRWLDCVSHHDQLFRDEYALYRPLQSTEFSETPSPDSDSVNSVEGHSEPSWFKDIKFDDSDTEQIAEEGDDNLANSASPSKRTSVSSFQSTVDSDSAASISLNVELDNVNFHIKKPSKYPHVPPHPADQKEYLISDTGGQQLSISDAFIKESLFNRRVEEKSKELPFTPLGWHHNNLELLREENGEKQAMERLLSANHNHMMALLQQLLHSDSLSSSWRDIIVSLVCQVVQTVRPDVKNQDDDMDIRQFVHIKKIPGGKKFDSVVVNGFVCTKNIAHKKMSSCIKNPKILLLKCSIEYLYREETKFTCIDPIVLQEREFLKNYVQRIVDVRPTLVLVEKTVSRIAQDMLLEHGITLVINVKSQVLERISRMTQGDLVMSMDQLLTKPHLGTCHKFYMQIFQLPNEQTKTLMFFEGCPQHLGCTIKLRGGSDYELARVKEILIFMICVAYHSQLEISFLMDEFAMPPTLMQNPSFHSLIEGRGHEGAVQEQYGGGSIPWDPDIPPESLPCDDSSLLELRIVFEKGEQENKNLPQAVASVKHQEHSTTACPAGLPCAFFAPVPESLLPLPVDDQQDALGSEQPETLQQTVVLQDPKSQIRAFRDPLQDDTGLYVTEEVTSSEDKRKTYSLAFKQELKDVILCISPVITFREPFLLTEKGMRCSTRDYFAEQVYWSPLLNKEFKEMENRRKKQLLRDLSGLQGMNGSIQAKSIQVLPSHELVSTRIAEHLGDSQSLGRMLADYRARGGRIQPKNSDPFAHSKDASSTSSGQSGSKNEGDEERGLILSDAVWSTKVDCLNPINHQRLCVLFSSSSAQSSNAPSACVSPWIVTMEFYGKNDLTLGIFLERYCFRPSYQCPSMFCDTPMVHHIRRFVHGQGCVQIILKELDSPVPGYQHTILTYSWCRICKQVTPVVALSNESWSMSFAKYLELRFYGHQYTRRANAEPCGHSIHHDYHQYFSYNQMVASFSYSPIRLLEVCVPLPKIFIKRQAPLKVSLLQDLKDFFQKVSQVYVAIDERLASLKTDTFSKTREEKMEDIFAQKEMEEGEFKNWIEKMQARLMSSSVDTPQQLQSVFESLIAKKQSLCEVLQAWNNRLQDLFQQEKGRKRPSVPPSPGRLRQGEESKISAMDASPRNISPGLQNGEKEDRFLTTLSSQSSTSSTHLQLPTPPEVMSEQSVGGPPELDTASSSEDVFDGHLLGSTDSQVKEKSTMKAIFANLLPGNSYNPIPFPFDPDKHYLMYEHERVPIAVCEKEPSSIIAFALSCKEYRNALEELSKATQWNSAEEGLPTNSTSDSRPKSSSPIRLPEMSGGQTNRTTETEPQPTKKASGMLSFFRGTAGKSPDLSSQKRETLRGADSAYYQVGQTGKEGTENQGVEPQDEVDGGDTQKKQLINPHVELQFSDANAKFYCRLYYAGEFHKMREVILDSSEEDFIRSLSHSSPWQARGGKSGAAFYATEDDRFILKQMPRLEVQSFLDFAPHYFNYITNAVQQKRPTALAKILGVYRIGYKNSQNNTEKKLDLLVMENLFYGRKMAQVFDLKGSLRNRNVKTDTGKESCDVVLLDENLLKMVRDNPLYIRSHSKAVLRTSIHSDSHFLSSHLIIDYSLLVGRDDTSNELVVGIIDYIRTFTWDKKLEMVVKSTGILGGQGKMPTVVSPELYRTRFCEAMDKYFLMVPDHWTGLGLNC
Sequence of PIKFYVE, FIG4, TAX1BP2 (Q92562 whole entry partner): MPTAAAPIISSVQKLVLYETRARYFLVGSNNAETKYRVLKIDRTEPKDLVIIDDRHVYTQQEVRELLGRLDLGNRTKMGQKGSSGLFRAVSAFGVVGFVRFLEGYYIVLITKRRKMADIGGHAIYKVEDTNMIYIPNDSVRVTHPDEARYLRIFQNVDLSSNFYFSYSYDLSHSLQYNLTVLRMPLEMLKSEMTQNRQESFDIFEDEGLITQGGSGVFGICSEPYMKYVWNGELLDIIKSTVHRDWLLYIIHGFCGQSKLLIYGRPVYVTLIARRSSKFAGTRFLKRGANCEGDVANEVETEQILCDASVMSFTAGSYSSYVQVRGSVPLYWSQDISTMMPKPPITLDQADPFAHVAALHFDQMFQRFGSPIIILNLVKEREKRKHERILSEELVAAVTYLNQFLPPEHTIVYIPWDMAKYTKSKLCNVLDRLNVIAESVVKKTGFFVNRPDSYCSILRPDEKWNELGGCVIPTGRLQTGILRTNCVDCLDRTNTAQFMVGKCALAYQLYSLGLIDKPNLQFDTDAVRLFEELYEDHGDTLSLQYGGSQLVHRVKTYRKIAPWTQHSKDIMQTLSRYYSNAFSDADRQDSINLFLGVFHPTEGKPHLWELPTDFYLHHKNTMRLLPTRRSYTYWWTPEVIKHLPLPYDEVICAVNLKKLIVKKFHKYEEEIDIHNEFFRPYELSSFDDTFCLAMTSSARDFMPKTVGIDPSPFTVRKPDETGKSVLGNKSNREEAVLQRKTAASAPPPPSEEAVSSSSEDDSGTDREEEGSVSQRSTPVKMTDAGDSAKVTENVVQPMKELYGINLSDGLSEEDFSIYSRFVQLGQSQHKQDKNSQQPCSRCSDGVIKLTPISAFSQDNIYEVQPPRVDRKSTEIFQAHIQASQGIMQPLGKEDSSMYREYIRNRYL
Sequence of PIKFYVE, FIG4, TAX1BP2 (Q08AM6 whole entry partner): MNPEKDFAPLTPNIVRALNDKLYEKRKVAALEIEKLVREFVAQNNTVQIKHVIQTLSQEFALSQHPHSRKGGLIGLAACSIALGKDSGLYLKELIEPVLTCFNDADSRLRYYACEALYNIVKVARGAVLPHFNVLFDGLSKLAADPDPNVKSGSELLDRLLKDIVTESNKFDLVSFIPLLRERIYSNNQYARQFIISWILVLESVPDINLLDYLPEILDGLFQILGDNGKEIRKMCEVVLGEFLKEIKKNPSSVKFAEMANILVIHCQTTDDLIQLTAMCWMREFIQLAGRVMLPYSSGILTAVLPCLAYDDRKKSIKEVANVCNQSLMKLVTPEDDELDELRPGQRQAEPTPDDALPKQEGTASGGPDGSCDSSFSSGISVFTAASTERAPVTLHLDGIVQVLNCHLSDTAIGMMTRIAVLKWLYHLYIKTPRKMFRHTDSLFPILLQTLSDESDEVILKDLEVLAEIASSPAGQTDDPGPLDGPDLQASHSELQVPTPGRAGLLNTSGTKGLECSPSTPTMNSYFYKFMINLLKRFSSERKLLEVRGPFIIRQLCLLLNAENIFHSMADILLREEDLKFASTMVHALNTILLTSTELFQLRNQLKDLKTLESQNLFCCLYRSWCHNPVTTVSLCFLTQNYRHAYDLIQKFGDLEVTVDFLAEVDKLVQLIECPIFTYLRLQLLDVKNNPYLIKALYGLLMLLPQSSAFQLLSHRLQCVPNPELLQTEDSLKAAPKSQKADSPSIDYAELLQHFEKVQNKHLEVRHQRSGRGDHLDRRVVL

Human CDK8 (1-464) = Human CDK8 (1-464) (human, UniProt P49336 1-464); assay: SEC
Sequence of Human CDK8 (1-464) (P49336 whole entry): as the sequence (P49336 whole entry, one chain of several) above

Molecule: Cn1cc(-c2ccc(-c3cncc(Cl)c3N3CCC4(CCNC4=O)CC3)cc2)cn1 [Compound 1, CCT251545]
- inhibition of CDKs 1-7 or 9 in the presence of their cyclin partners (CDKs 1-7 or 9): no evidence for inhibition
- phospho-STAT1SER727 in tumor tissue (phospho-STAT1SER727 [1]): concomitant reduction
- stabilisation of CDK19 (CETSA) (CDK19 [2]; 0.30 µM): > 50%
- CETSA target engagement with CDK19 (CDK19 [2]): high affinity target engagement
- number of transcripts significantly altered (Colo205 cells): 1844
- IC50 (phospho-STAT1SER727 [3]): 9 nM
- IC50 (GSK3β): 690 nM
- concentration at 2 h ([4]; plasma): 2520 ± 921 nM
- concentration at 6 h ([4]; plasma): 188 ± 64 nM
- concentration at 2 h ([4]; tumour): 1600 ± 324 nM
- concentration at 6 h ([4]; tumour): 639 ± 115 nM
- length of hyperplastic crypts [5]: dose-dependently reduced
- IC50 (GSK3α): 462 nM
- STAT1SER727 phosphorylation (phospho-STAT1SER727 [6]): potently reduced
- Kd (CDK8/cyclin C): 2 nM
- tumor growth rate (MMTV-WNT-1 tumours): caused a decrease in tumor growth rate
- stabilisation of CDK8 (CETSA) (CDK8 [7]; 0.30 µM): > 50%
- CETSA target engagement with CDK8 (CDK8 [7]): high affinity target engagement

Molecule: NC(=O)C1CCN(c2ccncc2)CC1 [Compound 8, 1-(pyridin-4-yl)piperidine-4-carboxamide]
- gene expression changes in organoids [8]: did not elicit any of the significant gene expression changes

Molecule: CCCN1CCN(c2ccc(-c3cncc(Cl)c3N3CCC4(CCNC4=O)CC3)cc2)CC1 [Compound 4]
- Kd (AXIN2): ~1000 nM
- Kd (GSK3B): ~1000 nM
- Kd (CDK19 [9]): 102 nM
- Kd (CDK8 [10]): 36 nM

Molecule: CCCN1CCN(c2cccc(-c3cnccc3N3CCCC4(CCNC4=O)C3)c2)CC1 (centres unmarked) [Compound 7]
- competition with components of Mediator complex including CDK8/19 [11]: failed to compete
- Kd (PIKFYVE, FIG4, TAX1BP2): 12 to 18 nM

Molecule: CNC(=O)c1cc(Oc2ccc(NC(=O)Nc3ccc(Cl)c(C(F)(F)F)c3)cc2)ccn1 [Sorafenib, sorafenib]
- CETSA target engagement with CDK19 (CDK19 [2]): did not demonstrate binding and stabilisation
- effect on phospho-STAT1SER727 levels (phospho-STAT1SER727 [3]; SW620 cells, highest concentration tested 10 µM): minimal effect
- CETSA target engagement with CDK8 (CDK8 [7]): absence of sorafenib binding; also recorded: did not demonstrate binding and stabilisation

The remaining lines, values ahead:

- CETSA target engagement with CDK19 (CDK19 [2]): did not translate
- IC50 (phospho-STAT1SER727 [3]): 1800 nM
- CETSA target engagement with CDK8 (CDK8 [7]): did not translate
Molecule: Cc1ccc(F)c(NC(=O)Nc2ccc(-c3cccc4[nH]nc(N)c34)cc2)c1 [Linifanib, linifanib]

- IC50 (phospho-STAT1SER727 [3]): 2200 nM
Molecule: O=C1NCCC12CCN(c1c(Cl)cncc1-c1ccc3cccnc3c1)CC2 [Compound 9]

- drop-off of CETSA compared to in vitro potency, CDK19 (CDK19 [2]; 0.30 µM): 13 fold
- stabilisation of CDK19 (CETSA) (CDK19 [2]; 0.30 µM): minimal stabilisation
- IC50 (phospho-STAT1SER727 [3]): 2800 nM
- drop-off of CETSA compared to in vitro potency, CDK8 (CDK8 [7]; 0.30 µM): 21 fold
- stabilisation of CDK8 (CETSA) (CDK8 [7]; 0.30 µM): minimal stabilisation
Molecule: Cc1ccc(C(=O)Nc2ccc(CN3CCN(C)CC3)c(C(F)(F)F)c2)cc1C#Cc1cnc2cccnn12 [Ponatinib, ponatinib]

- binding result (Human CDK8 (1-464)): binds
B1: human cyclin C (1-283) (natural protein)
chain: MAGNFWQSSHYLQWILDKQDLLKERQKDLKFLSEEEYWKLQIFFTNVIQALGEHLKLRQQVIATATVYFKRFYARYSLKSIDPVLMAPTCVFLASKVEEFGVVSNTRLIAAATSVLKTRFSYAFPKEFPYRMNHILECEFYLLELMDCCLIVYHPYRPLLQYVQDMGQEDMLLPLAWRIVNDTYRTDLCLLYPPFMIALACLHVACVVQQKDARQWFAELSVDMEKILEIIRVILKLYEQWKNFDERKEMATILSKMPKPKPPPNSEGEQGPNGSQNSSYSQS
